In patent US9073915B2, “Substituted pyrimidone derivatives” (SANOFI, priority 2008, dated 2015) one finds IC50 and melting point data, which are given here for four compounds.

Structures can show the parent of a compound that is named as a salt.

One data set concerns the target GSK3β (Homo sapiens, UniProt P49841). Description: Inhibitory activity against GSK3β (33P-ATP phosphorylation of prephosphorylated GS1 peptide, filter assay). In kind it is biochemical. Conditions: protocol 3: 7.5 μM GS1 peptide, 10 μM ATP, 50 mM Hepes pH 7.2, one hour at room temperature. The method, then: Four different protocols can be used. […]
The reaction was stopped with 100 microliters of a solution made of 25 g polyphosphoric acid (85% P2O5), 126 ml 85% H3PO4, H2O to 500 ml and then diluted to 1:100 before use. […] Incorporated ^33P radioactivity was determined by liquid scintillation spectrometry. […]

GSK3β, sequence (P49841 whole entry): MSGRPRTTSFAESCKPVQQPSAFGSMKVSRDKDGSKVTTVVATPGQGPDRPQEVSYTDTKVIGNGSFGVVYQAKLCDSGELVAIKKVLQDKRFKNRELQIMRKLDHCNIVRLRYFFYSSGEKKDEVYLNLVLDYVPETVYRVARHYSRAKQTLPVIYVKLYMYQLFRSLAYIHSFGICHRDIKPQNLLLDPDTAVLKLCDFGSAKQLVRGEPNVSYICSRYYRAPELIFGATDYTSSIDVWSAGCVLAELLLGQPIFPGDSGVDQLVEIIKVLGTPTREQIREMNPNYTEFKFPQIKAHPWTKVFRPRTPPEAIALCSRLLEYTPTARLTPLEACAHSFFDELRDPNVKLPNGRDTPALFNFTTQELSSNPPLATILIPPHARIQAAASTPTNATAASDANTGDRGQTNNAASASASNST

For orientation: IC50 means the midpoint of a concentration-inhibition curve. A high value points to weaker potency in that assay. On to `COc1ccccc1CCc1cccn2c(=O)cc(-c3ccncc3)nc12` [compound 7, 9-[2-(2-Methoxy-phenyl)-ethyl]-2-pyridin-4-yl-pyrido[1,2-a]pyrimidin-4-one], for which half-maximal inhibition against GSK3β (IC50) required 30 nM. What is called melting point is the temperature, or range, at which the solid turns liquid. As for `COc1ccccc1CCc1cccn2c(=O)cc(-c3ccncc3)nc12` (as salt: hydrochloride) [compound 7, 9-[2-(2-Methoxy-phenyl)-ethyl]-2-pyridin-4-yl-pyrido[1,2-a]pyrimidin-4-one], the melting point was in the range of 220 to 224 °C. Compound `O=c1cc(-c2ccncc2)nc2cc(-c3ccccc3)ccn12` (as salt: salt) [Compound No. 4, 8-Phenyl-2-pyridin-4-yl-pyrido[1,2-a]pyrimidin-4-one] had a melting point of 261 to 262 °C.

`O=c1cc(-c2ccncc2)nc2cc(-c3ccccc3)ccn12` [Compound No. 4, 8-Phenyl-2-pyridin-4-yl-pyrido[1,2-a]pyrimidin-4-one]: inhibition on GSK3β was half-maximal at 490 nM (IC50).
